Experimental data published in US9464064B2, “HCV helicase inhibitors and methods of use thereof” (University of Kansas, priority 2011, dated 2016).
Read-outs that look alike come from different tables or passages of the source.

What was measured:
[1] = molecular target: T1, HCV NS3 helicase NS3h_1b(con1) (Hepatitis C virus genotype 1b, UniProt Q9WMX2); assay: biochemical; type: biochemical, hepatitis C virus genotype 1b(con1)
T1 construct: truncated C-terminally His-tagged NS3 proteins lacking the N-terminal protease, called NS3h; His-tag (C); made in house
Summary of the method: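 Molecular beacon helicase assay with His-tagged recombinant NS3 and a Cy5/IBRQ-labelled partially duplex DNA substrate (25 bp) or Tye665-labelled RNA substrate (19 bp). Reactions started with 1 mM ATP. Screening read fluorescence before and 30 min after ATP (ex 643/em 670 nm). For IC50, 5% v/v DMSO was present, initial velocities came from first-order decay fits, and a Hill equation was applied.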

MBHA DNA substrate = assay: Modified FID assay, SYBR Green I; type: binding; conditions: for DNA binding (%): SYBR Green I-FID, average (±SD) percent bound at 100 μM
Summary of the method: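 Fluorescent intercalator displacement with SYBR Green I (0.68 μM) in place of ethidium bromide and MBHA DNA at 0.32 μM. Normalized data fit to concentration-response equation; EC50 given as mean ± SD of three independent triplicate titrations.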

Huh-7.5 cells = assay: Cell viability assay ([…]-GLO); type: cell-based, human; conditions: for Cell viability (% viable): 10 μM compound, triplicate, average ± SD
Summary of the method: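 Huh-7.5 cells exposed to compound for 72 hours, washed, then lysed in a 1:1 mix of growth medium and […]-GLO reagent. After 30 minutes at 23° C., luminescence was read for 1 second as a measure of viability.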

[2] = molecular target: T2, E. coli SSB-Cy5-dT15 complex (Escherichia coli, UniProt P0AGE0); assay: Escherichia coli SSB Cy5-dT15 binding assay (fluorescence polarization); conditions: for IC50: disruption of Cy5-dT15-SSB complex, read-out: Cy5-dT15-SSB Binding IC50; for inhibition at 100 µM: read-out: SSB % Displaced @ 100 μM; for EC50: read-out: SSB EC50
T2 construct: purchased Promega
Summary of the method: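 Fluorescence polarization with 5 nM Cy5-dT15 and 20 nM E. coli SSB in 25 mM MOPS pH 7.5, 1.25 mM MgCl2, BSA, Tween 20, DTT. Screening at 1% DMSO; IC50 runs at 5% DMSO. Excitation 635 nm, parallel and perpendicular emission at 667 nm.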

[3] = MBHA, DNA unwinding, mean ± SD of three titrations, read-out: Helicase IC50
[4] = genotype 1b (con1), read-out: Target Potency MBHA (IC50 avg., μM) 1b (con1)
[5] = standard HCV helicase MBHA (Table 9), read-out: DNA Unwinding IC50
[6] = SYBR Green, read-out: FID (SG) EC50 (converted)
[7] = DNA-based MBHA, genotype 1b, read-out: DNA Helicase NS3h_1b IC50 (μM) ± SD

T1 sequence (Q9WMX2 1192-1657): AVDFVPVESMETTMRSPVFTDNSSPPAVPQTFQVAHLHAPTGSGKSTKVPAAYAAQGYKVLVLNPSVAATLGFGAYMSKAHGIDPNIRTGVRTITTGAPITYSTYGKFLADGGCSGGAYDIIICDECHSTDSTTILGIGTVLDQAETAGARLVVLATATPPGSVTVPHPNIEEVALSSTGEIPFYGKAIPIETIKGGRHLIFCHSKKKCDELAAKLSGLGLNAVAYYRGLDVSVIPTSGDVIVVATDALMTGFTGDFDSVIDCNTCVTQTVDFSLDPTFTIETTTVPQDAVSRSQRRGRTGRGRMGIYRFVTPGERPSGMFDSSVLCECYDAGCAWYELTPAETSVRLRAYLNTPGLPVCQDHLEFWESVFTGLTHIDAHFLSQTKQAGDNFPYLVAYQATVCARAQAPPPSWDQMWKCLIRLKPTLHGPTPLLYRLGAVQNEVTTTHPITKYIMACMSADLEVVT
T2 sequence (P0AGE0 2-178, one chain of several): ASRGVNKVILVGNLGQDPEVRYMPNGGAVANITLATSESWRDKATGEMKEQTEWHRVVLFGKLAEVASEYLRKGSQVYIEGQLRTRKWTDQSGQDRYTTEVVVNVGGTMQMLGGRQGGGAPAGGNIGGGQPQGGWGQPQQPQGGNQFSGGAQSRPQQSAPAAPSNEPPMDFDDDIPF

Row | SMILES | IC50 [1, 3] [µM] | IC50 [1, 4] [µM] | IC50 [1, 5] [µM] | DNA binding (%) (MBHA DNA substrate) | FID (SG) % Displaced @ 100 μM (MBHA DNA substrate; SYBR Green) [%] | EC50 (MBHA DNA substrate; [6]) [µM] | Cell Viability (% @ 10 μM) (Huh-7.5 cells) [%] | Cell viability (% viable) (Huh-7.5 cells) [%] | IC50 [2] [µM] | inhibition at 100 µM [2] [%] | EC50 [2] [µM] | IC50 [1, 7] [µM] | toxicity at highest concentration tested (Huh-7.5 cells; 50 μM) | EC50 (MBHA DNA substrate; FID, mean ± SD, read-out: DNA Binding (SYBR Green I) EC50) [µM]
1 | Cc1ccc2nc(-c3ccc4nc(-c5ccc(NC(=O)c6ccc(C(F)(F)F)c(F)c6)cc5)sc4c3)sc2c1S(=O)(=O)O [Compound 23, 2′-(4-(3-fluoro-4-(trifluoromethyl)benzamido)phenyl)-6-methyl-[2,6′-bibenzo[d]thiazole]-7-sulfonic acid] | 17 ± 17 | 17.4 ± 17 | 17 ± 17 | 66 ± 18 | 66 ± 18 | 28 ± 28 | 129 ± 2 | 129 ± 2 | 10 ± 1 | 92 | 10 ± 1 |  |  | 
2 | Cc1ccc2nc(-c3ccc4nc(-c5ccc(NC(=O)c6cc(C(F)(F)F)cc(C(F)(F)F)c6)cc5)sc4c3)sc2c1S(=O)(=O)O [Compound 24, 2′-(4-(3,5-bis(trifluoromethyl)benzamido)phenyl)-6-methyl-[2,6′-bibenzo[d]thiazole]-7-sulfonic acid] | 22 ± 4 | 22.2 ± 4 | 22 ± 4 | 43 ± 13 | 43 ± 13 | 86 ± 210 | 122 ± 5 | 122 ± 5 | 36 ± 7 | 73 | 36 ± 7 | 22 ± 4.2 | not toxic | 
3 | Cc1ccc2nc(-c3ccc4nc(-c5ccc(NC(=O)c6cc(C(F)(F)F)ccc6F)cc5)sc4c3)sc2c1S(=O)(=O)O [Compound 25, 2′-(4-(2-fluoro-5-(trifluoromethyl)benzamido)phenyl)-6-methyl-[2,6′-bibenzo[d]thiazole]-7-sulfonic acid] | 6.4 ± 2 | 6.4 ± 2 | 6 ± 2 | 35 ± 26 | 35 ± 26 | > 100 | 132 ± 14 | 132 ± 14 | 12 ± 8 | 69 | 12 ± 8 | 6 ± 1.9 |  | 
4 | Cc1ccc2nc(-c3ccc4nc(-c5ccc(NC(=O)c6cc(F)ccc6C(F)(F)F)cc5)sc4c3)sc2c1S(=O)(=O)O [Compound 26, 2′-(4-(5-fluoro-2-(trifluoromethyl)benzamido)phenyl)-6-methyl-[2,6′-bibenzo[d]thiazole]-7-sulfonic acid] | 19 ± 15 | 19 ± 15 | 19 ± 15 | 35 ± 21 | 35 ± 21 | > 100 | 118 ± 4 | 118 ± 4 | 14 ± 2 | 95 | 14 ± 2 |  |  | 
5 | Cc1ccc2nc(-c3ccc4nc(-c5ccc(NC(=O)c6cc(F)cc(C(F)(F)F)c6)cc5)sc4c3)sc2c1S(=O)(=O)O [Compound 27, 2′-(4-(3-fluoro-5-(trifluoromethyl)benzamido)phenyl)-6-methyl-[2,6′-bibenzo[d]thiazole]-7-sulfonic acid] | 28 ± 7 | 28.4 ± 7 |  | 48 ± 17 | 48 ± 17 | > 100 | 113 ± 1 | 113 ± 1 |  | 23 | > 100 |  |  | 
6 | Cc1ccc(NC(=O)Nc2ccc(-c3nc4ccc(-c5nc6ccc(C)c(S(=O)(=O)O)c6s5)cc4s3)cc2)cc1 [Compound 28, 6-methyl-2′-(4-(3-(p-tolyl)ureido)phenyl)-[2,6′-bibenzo[d]thiazole]-7-sulfonic acid] | 5.3 ± 0.9 | 5.3 ± 0.9 | 5 ± 1 | 90 ± 9 | 90 ± 9 | 18 | 93 ± 1 | 93 ± 1 | 10 ± 3 | 96 | 10 |  |  | 13
7 | COc1ccc(S(=O)(=O)Nc2ccc(-c3nc4ccc(-c5nc6ccc(C)c(S(=O)(=O)O)c6s5)cc4s3)cc2)cc1 [Compound 29, 2′-(4-(4-methoxyphenylsulfonamido)phenyl)-6-methyl-[2,6′-bibenzo[d]thiazole]-7-sulfonic acid] | 24 ± 2.2 | 24.4 ± 2.2 | 24 ± 2 | 69 ± 4 | 69 ± 4 | 42 | 75 ± 3 | 75 ± 3 | 10 ± 2 | 98 | 10 |  |  | 
8 | CC(=O)Nc1ccc(-c2nc3ccc(-c4nc5ccc(C)c(S(=O)(=O)O)c5s4)cc3s2)cc1 [Compound 30, 2′-(4-acetamidophenyl)-6-methyl-[2,6′-bibenzo[d]thiazole]-7-sulfonic acid] | > 100 | > 100 | 227 ± 107 | 48 ± 5 | 48 ± 5 | > 100 | 102 ± 9 | 100 ± 6 | 17 ± 4 | 89 | 17 |  |  | 
9 | Cc1ccc2nc(-c3ccc4nc(-c5ccc(NC(=O)c6ccc7ccccc7c6)cc5)sc4c3)sc2c1S(=O)(=O)O [Compound 33, 2′-(4-(2-naphthamido)phenyl)-6-methyl-[2,6′-bibenzo[d]thiazole]-7-sulfonic acid] | 2.7 ± 0.7 | 3.6 | 4 | 64 ± 7 | 63 ± 11 | 25 | 99 ± 11 |  | 28 ± 9 | 78 | 28 | 3 ± 0.7 |  | 
10 | Cc1ccc2nc(-c3ccc4nc(-c5ccc(N(C)C(=O)c6ccc7ccccc7c6)cc5)sc4c3)sc2c1S(=O)(=O)O [Compound 34, 6-methyl-2′-(4-(N-methyl-2-naphthamido)phenyl)-[2,6′-bibenzo[d]thiazole]-7-sulfonic acid] | 14 ± 0.1 | 14.4 ± 0.04 | 14 | 35 ± 23 | 35 ± 23 | > 100 | 101 ± 9 |  | 9 ± 2 | 105 | 9 |  |  | 
11 | Cc1ccc2nc(-c3ccc4nc(-c5ccc(NC(=O)c6ccc7nc(-c8ccc(N)cc8)sc7c6)cc5)sc4c3)sc2c1S(=O)(=O)O [Compound 35, 2′-(4-(2-(4-aminophenyl)benzo[d]thiazole-6-carboxamido)phenyl)-6-methyl-[2,6′-bibenzo[d]thiazole]-7-sulfonic acid] | 5.5 ± 2.1 | 5.5 ± 2.1 | 6 ± 2 | 59 ± 4 | 59 ± 4 | 68 | 85 ± 2 | 85 ± 2 | 3 ± 1 | 95 |  | 6 ± 2.1 |  | 
